Data from patent US8598209B2, “P2X3, receptor antagonists for treatment of pain” (Merck Sharp & Dohme Corp., priority 2008, dated 2013).

Molecular target: T1, human P2X3 (Homo sapiens, UniProt P56373)
T1 construct: expressed in transfected cells
T1 sequence (P56373 1-397): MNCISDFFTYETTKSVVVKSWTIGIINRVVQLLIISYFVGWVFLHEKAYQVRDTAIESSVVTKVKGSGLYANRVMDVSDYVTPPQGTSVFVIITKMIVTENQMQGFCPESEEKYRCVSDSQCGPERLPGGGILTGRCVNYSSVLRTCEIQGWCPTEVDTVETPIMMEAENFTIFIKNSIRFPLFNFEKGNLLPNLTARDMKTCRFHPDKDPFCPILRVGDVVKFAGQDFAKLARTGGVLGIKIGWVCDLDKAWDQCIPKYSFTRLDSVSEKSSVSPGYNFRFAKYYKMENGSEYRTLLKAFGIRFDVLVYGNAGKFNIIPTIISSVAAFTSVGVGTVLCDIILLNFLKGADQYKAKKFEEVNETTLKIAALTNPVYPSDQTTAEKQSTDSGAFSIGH
Assay: Intracellular Calcium Measurement to Assess Antagonist Affinity (FLIPR, Fluo-4), human P2X3 cells
Assay type: cell-based
Conditions: Intracellular Calcium Measurement to Assess Antagonist Affinity assay; agonist α,β-meATP at EC50
Excerpt: Generation of a Human P2X3 and P2X2/3 Stable Cell Line—
Human P2X3 receptor cDNA (Accession number NM_002559) was subcloned as a 5′XhoI and 3′HindIII fragment into the expression vector pcDNA5/FRT (Invitrogen). Human P2X2 receptor cDNA (Accession number NM_174873) was subcloned as a 5′EcoRI and 3′NotI fragment into the expression vector pIRESneo2 (BD Biosciences Clontech). The human P2X3 expression construct was transfected using Lipofectamine 2000 (Invitrogen) into Flp-in—293 cells (Invitrogen) according to the manufacturer's directions. Cells positive for flp-mediated recombination of […] P2X3 were selected using 150 μg/ml hygromycin. The stable human P2X3 cell line was co-transfected with the human P2X2 expression construct using Lipofectamine 2000 as above and co-transfected cells selected using […] hygromycin and 1 mg/ml G418. The stable P2X3 cell line was propagated in DMEM, 10% FBS, 100 μg/ml hygromycin, and 100 units/ml penicillin and 100 μg/ml streptomycin, and maintained at 37° and 95% humidity. The stable P2X2/3 cell line was propagated as above with the addition of 500 μg/ml G418.
Intracellular Calcium Measurement to Assess Antagonist Affinity—
A fluorescent imaging plate reader (FLIPR; Molecular Devices) was used to monitor intracellular calcium levels using the calcium-chelating dye Fluo-4 (Molecular Probes). The excitation and emission wavelengths used to monitor fluorescence were 488 nm and 530 nm, respectively. Cells expressing either human P2X3 or human P2X2/3 were plated at a density of 20,000 cells/well (20 μl/well) in 384-well black-walled plates approximately 20 hours before beginning the assay. On the day of the assay 20 μl of loading buffer (Hank's balanced salt solution, 2.5 mM CaCl2, 20 mM HEPES, 0.1% BSA, 2.5 mM probenecid, TR-40, Fluo-4, and 138 mM NMDG substituted for NaCl) is added and cells dye-loaded for 60 min in the dark at room temperature. Ten minutes prior to adding agonist, the antagonist was added in a volume of 10 μl and allowed to incubate at room temperature. During this period fluorescence data is collected at 3 sec intervals followed by 10 sec intervals. The agonist, α,β-meATP, is added at a 6× concentration ([α,β-meATP]final=EC50). Following agonist addition fluorescence was measured at 5 sec intervals and analyzed based on the increase in peak relative fluorescence units (RFU) compared to the basal fluorescence. Peak fluorescence was used to determine the inhibitory effect at each concentration of antagonist by the following equation: % Inhibition=100*(1−((RFU(drug)−RFU(control))/(RFU(DMSO only)−RFU(control)))) In vitro Electrophysiological Assay—

IC50 [nM]	SMILES
23	C[C@@H](NC(=O)c1cc(-c2ccc(F)cc2F)nc(C(C)(C)O)c1)c1ccc(C(F)(F)F)[n+]([O-])c1 [Example 1.62, 2-(2,4-Difluorophenyl)-6-(1-hydroxy-1-methylethyl)-N-{(1R)-1-[1-oxido-6-(trifluoromethyl)pyridin-3-yl]ethyl}isonicotinamide]
165	Cc1ccc(-c2cc(C(=O)N[C@@H](C)c3nnc[nH]3)nc(-c3ccc(C)cc3)n2)cc1 [Example 2.1]
42	Cc1ccc(-c2cc(C(=O)N[C@H](C)c3nc(C)no3)cnc2OC(C)C)cc1 [Example 3.22]
48	Cc1noc([C@@H](C)NC(=O)c2cc(-c3ccc(F)cc3)c(=O)n(C(C)C)c2)n1 [Example 5.61, 5-(4-fluorophenyl)-1-isopropyl-N-[(1R)-1-(3-methyl-1,2,4-oxadiazol-5-yl)ethyl]-6-oxo-1,6-dihydropyridine-3-carboxamide]
